Source: article PMC4496826, “Nanostructured lipid carriers for percutaneous administration of alkaloids isolated from Aconitum sinomontanum” (Journal of Nanobiotechnology, 2015)
In brackets after ≈: the same amount, converted by molar mass. Where a name gives a salt, the structure may show the parent alone.

Assays:
[1] = system: HaCaT cells; test: Endocytic pathway: uptake of C6-labeled NLCs in presence of endocytosis inhibitors; assay type: cell-based, human; details: 30 min pre-incubation with inhibitor, vs. control
Description: (§1) Endocytosis mechanisms were assessed using cellular uptake assays in the presence of chemicals known to inhibit specific endocytosis pathways. Cells were incubated with CPZ, FLP, GNT, CCD, DMA, NaN3, or MS (at […], respectively) for 30 min at 37°C. After exposure to these inhibitors, 200 µL of C6-labeled NLCs was added to each well and incubated for 30 min. After the incubation, cells were prepared for flow cytometry as described earlier and the data for at least 20,000 cells were acquired. The cells treated with C6-labeled NLCs alone were considered as the control cells.

[2] = system: CCC-ESF cells; assay type: cell-based, human; details: 30 min pre-incubation with inhibitor, vs. control
Description: as §1

[3] = Aqueous solubility in the release medium; assay type: physicochemical; details: normal saline containing 20% PEG 400
[4] = system: mice; design: method as in ref 5 = [5]; 5. Guan YZ Shi YB Wang H Summary on the advanced research of lappaconite hydrobromide Theory Pr Chin Med 2005 15 1838 1840; details: cited from earlier work
[5] = system: rats; design: method as in ref 5 = [5]; 5. Guan YZ Shi YB Wang H Summary on the advanced research of lappaconite hydrobromide Theory Pr Chin Med 2005 15 1838 1840; details: cited from earlier work
[6] = design: method as in ref 6 = [6]; 6. Liang ZF Lyu YP Yuan W Liu YL Zhu XC Dose-effect relationship of lappaconitine Chin Pharmacol Bull 1993 9 146; details: per os; cited from earlier work

Row | Compound | effect on internalization/uptake of C6-labeled NLCs [2] | other results
1 | CCCCC[C@@H](O)[C@H]1C(=O)O[C@H](C)[C@@H](O)/C=C/C=C/C=C/C=C/C=C(\C)[C@@H](O)C[C@H](O)C[C@H](O)C[C@H](O)C[C@H](O)C[C@H](O)C[C@@H]1O [FLP, filipin III] | significantly inhibited | effect on uptake of C6-labeled NLCs (average fluorescence intensity) [1]: significantly reduced
2 | O=c1c(-c2ccc(O)cc2)coc2cc(O)cc(O)c12 [GNT, genistein] | did not significantly affect | 
3 | CN(C)CCCN1c2ccccc2Sc2ccc(Cl)cc21 [CPZ, chlorpromazine] | did not significantly affect | 
4 | C=C1[C@@H](C)[C@H]2[C@H](Cc3ccccc3)NC(=O)[C@]23[C@H](OC(C)=O)/C=C/[C@@](C)(O)C(=O)[C@@H](C)C/C=C/[C@H]3[C@@H]1O [CCD, cytochalasin D] | significantly inhibited | 
5 | monensin sodium [MS] | did not significantly affect | 
6 | CCN1C[C@]2(OC(=O)c3ccccc3NC(C)=O)CC[C@H](OC)C34C1C(O)(C[C@@H]32)[C@@]1(O)C[C@H](OC)[C@H]2C[C@@H]4[C@]1(O)[C@H]2OC [RAN, ranaconitine] |  | aqueous solubility in the medium [3]: 582.06 ± 16.27 µg/mL (≈ 969 µM)
7 | CN(C)c1nc(N)c(C(=O)NC(=N)N)nc1Cl [DMA, 5-(N,N-dimethyl)-amiloride hydrochloride] | did not significantly affect | 
8 | CCN1C[C@]2(OC(=O)c3ccccc3NC(C)=O)CC[C@H](OC)[C@@]34[C@@H]2C[C@@H]([C@@H]13)[C@@]1(O)C[C@H](OC)[C@H]2C[C@@H]4[C@]1(O)[C@H]2OC [LA, lappaconitine] |  | aqueous solubility in the medium [3]: 849.79 ± 36.95 µg/mL (≈ 1450 µM); oral LD50 [4]: 32.4 mg/kg; oral LD50 [5]: 20 mg/kg; certain safety factor (CSF) [6]: 1.01; standard safety margin (SSM) [6]: 1.0%
9 | [N-]=[N+]=[N-].[Na+] [NaN3, sodium azide] | did not significantly affect | 
